Measurements: patent US20100292229A1, “TRYPHOSTIN-ANALOGS FOR THE TREATMENT OF CELL PROLIFERATIVE DISEASES” (The Board of Regents of the University of Texas System, priority 2006, published 2010)
Blank lines part the entries; values can stand above or below the compound they belong to. Where a SMILES comes first, the peptide text is derived from it. The star is where a group is joined. Cbz = O=C(OCc1ccccc1)*

Tests used:
c-myc = biological target: T1, c-myc (Homo sapiens, UniProt P01106); test: c-myc protein immunoblot in MM-1 cells; format: cell-based; details: for Effect of inhibitor pretreatment on Degrasyn-mediated c-myc protein reduction: inhibitor 2 h, then 5 μM Degrasyn 2 h
T1 construct: endogenous in cells; host or cells: MM-1 cells
Method: Top: MM-1 cells were incubated with 5 μM Degrasyn for the interval noted before cell lysates were prepared and subjected to immunoblotting for c-myc and actin as a protein loading control.
Middle: MM-1 cells were treated with the indicated concentration of Degrasyn for 1 h before lysates were immunoblotted for c-myc and actin.
Bottom: MM-1 cells were treated as indicated before extraction of total RNA (TRIzol). RNA was resolved by agarose electrophoresis, transferred to a membrane and hybridized with a c-myc probe to determine the level of c-myc RNA in each sample. The ethidium bromide stained gel was photographed and 28S RNA content was detected as a measure of RNA content in each lane.
MM-1 cells were pretreated with protease/proteosome inhibitors (LLnL; LLnM; E-64d; MG132; PS341; Chloroquine; Ammonium Chloride; Cycloheximide) for 2 h before the addition of 5 μM Degrasyn or vehicle alone (DMSO as indicated) for an additional 2 h. Cell lysates were prepared and equal protein aliquots were subjected to immunoblotting for c-myc, Max (a c-myc binding partner) or actin as a protein loading control.
Pictured: MM-1 cells were treated with biotinylated Degrasyn (Bio-Deg) or Degrasyn (at the indicated concentration) for 1 h before analyzing effects on c-myc as described in FIG. 15.
(§1) Western Blot analysis. Cells were harvested, washed twice in cold 1×PBS and lysed in modified RIPA lysis buffer (150 mM NaCl, 1% NP-40, 0.5% Na-deoxycholate [DOC], 0.1% Na-dodecyl sulfate [SDS], 50 mM Tris-HCl (pH 7.5), 1 mM EDTA, 1 mM NaF, 2 mM Na-vanadate, with protease inhibitors (1 mM PMSF, 1 mM benzamidine, 10 μg/ml aprotinin, 10 μg/ml leupeptin) on ice for 30 min. The lysed cells were centrifuged at 13,000 rpm for 30 min and the supernatant collected. The protein concentration of the cell lysate was determined by the Bradford Protein Assay. Fifty to 60 μg of protein were resolved in a 10% SDS-PAGE, and transferred to a PVDF membrane. Western blotting was performed using specific primary antibodies Peroxidase-conjugated affiniPure anti-Mouse Anti-Rabbit secondary antibodies (Jackson Immunoresearch Laboratories, West Grove, Pa.). The proteins were visualized with ECL Plus reagents (Amersham Biosciences).

K562 cells = test: MTT assay of cell growth and survival, K562 cells; format: cell-based, human; details: FIG. 21; anti-tumor activity
Method: (§2) All compounds are tested for purity (HPLC, NMR) and the calculated molecular weight is used to make up a 10 mM stock solution of each compound (in 100% dimethylsulfoxide or 50% dimethylsulfoxide:50% polyethylene glycol 300). Compounds are diluted into cell culture media consisting of RPMI 1640 with 10% fetal bovine serum to a final starting concentration of 10 μM. [Highest final DMSO content=0.1%.]. Tumor cells (20,000 for non-adherent cells; 5,000 for adherent cells) are plated into individual wells of a 96-well culture plate in 0.1 ml of culture media. Diluted compounds are added to individual wells containing pre-plated cells (final volume 0.2 ml) and incubated at 37° C. for 24 to 72 h. Wells receiving vehicle alone acted as a control.
(§3) MTT (viability) assay. MTT reagent (20 μl of 5 mg/ml stock solution, Sigma) is added to the cells and the plates are incubated at 37° C. for another 2 h. Cells are lysed by adding 100 μl of lysis buffer (20% SDS in 50% N,N-dimethylformamide (Sigma) adjusted to pH 4.7 by 80% acetic acid and 1 M HCl such that the final concentration of acetic acid is 2.5% and HCl is 2.5%) into each well and incubated for 6 h. The OD570 of each sample is determined by using a SPECTRA MAX M2 plate reader (Molecular Devices). The OD in control and treated wells is used as an estimate of the effect of compounds on cell growth and survival.
Cell lines. […]

nucleophosmin (NPM) = biological target: T2, nucleophosmin (NPM) (Homo sapiens, UniProt P06748); test: Affinity recovery of Degrasyn interactive proteins with streptavidin beads; format: binding; details: MM-1 or K562 cell lysates
T2 construct: endogenous in cells; host or cells: MM-1 and K562 cell lysates
Method: Biotinylated-Degrasyn (10 μM) was incubated with lysates from MM-1 cells (10 mg total protein) and interactive proteins were assessed by affinity recovery using Streptavidin-conjugated beads to bind biotinylated-Degrasyn. Free Degrasyn (10 μM) was incubated with biotinylated-Degrasyn in a parallel experiment to assist in identifying specific protein:Degrasyn interactions. Affinity complexes were washed and Streptavidin-Bio-Deg interaction proteins were assessed by disrupting protein complexes with SDS-sample buffer and resolving proteins by SDS-PAGE. The resolved proteins were detected by silver-staining the gel. Protein bands present in the biotinylated-Degrasyn sample that were absent in samples co-incubated with free Degrasyn were identified and cut from the gel. A 38 kDa protein band was prominent in this assessment and was subjected to in gel trypsinization and identification of HPLC resolved tryptic peptides by tandem mass spectroscopy analysis (David Hawke, Department of Molecular Pathology, M.D. Anderson Cancer Center). This analysis identified nucleophosmin (NPM) as a Degrasyn interactive protein.
To further assess the interaction between NPM and Degrasyn, biotinylated-Degrasyn/streptavidin beads were incubated with MM-1 (left) or K562 (right) cell lysates. In parallel, lysates were co-incubated with free Degrasyn to determine the specificity of the interaction with NPM. […]

MM-1 cells = test: MTT assay of cell growth and survival, MM-1 cells; format: cell-based
Method: as §2, §3
Cell lines. […] A375 melanoma cells were grown and maintained in the same media. Ba/F3 parental cells were grown in RPMI 1640 containing 10% heat inactivated fetal bovine serum and 2 mM glutamine supplemented with IL-3 (1 ng/ml) while Ba/F3 cells stably expressing Bcr/Abl or the T315I mutant of Bcr/Abl were grown in RPMI 1640 containing 10% heat inactivated fetal bovine serum and 2 mM glutamine in the absence of IL-3. Normal human dermal fibroblasts (NHDF) were obtained from Cambrex (Walkersville, Md.) and grown in specially formulated media (obtained through Cambrex) with 20% fetal calf serum.
IC50 determinations. The anti-tumor activity of certain compounds of the present invention against MM-1 cell lines was investigated and the IC50 values calculated (FIGS. 33A-F). In a typical experiment, MM-1 cell lines were incubated with a range of compound concentrations for 72 h to determine the concentration required to inhibit cell growth or induce apoptosis by 50% (IC50). MTT assays as described above were used to conduct this analysis.

[1] = test system: p70 and p55 tyrosine phosphorylation; test: Phosphotyrosine (4G10) immunoblot in B-cell malignancy cell lines; format: cell-based; details: 2 h; MM-1, LP or Mino cells
Method: MM-1 cells were pretreated with Degrasyn (at the concentration indicated) for 2 h before the addition of IL-6 for 15 min (as noted). Total cell lysates were prepared and equal protein aliquots were resolved by SDS-PAGE and immunoblotted for phosphotyrosine (4G10).
MM-1 and LP (lymphoma) cells were treated with Degrasyn (at the concentration indicated) for 2 h before cell lysates were prepared and equal protein aliquots were resolved by SDS-PAGE and immunoblotted for phosphotyrosine (4G10).
MM-1 and Mino (Mantle cell lymphoma) cells were treated with Degrasyns with different levels of anti-tumor efficacy (at the concentration indicated) for 2 h before cell lysates were prepared and equal protein aliquots were resolved by SDS-PAGE and immunoblotted for phosphotyrosine (4G10).
MM-1 cells were treated as indicated before analysis of cellular tyrosine phosphorylation by immunoblotting. Both p70 and p55 were tyrosine phosphorylated after 15 min of Degrasyn treatment which peaks in intensity after 1 h and remains higher than control levels after 4 h. These early changes may underlie or be a marker of Degrasyn activity in B-cell malignancies.
as §1

T1 sequence (P01106 16-454 limits assumed): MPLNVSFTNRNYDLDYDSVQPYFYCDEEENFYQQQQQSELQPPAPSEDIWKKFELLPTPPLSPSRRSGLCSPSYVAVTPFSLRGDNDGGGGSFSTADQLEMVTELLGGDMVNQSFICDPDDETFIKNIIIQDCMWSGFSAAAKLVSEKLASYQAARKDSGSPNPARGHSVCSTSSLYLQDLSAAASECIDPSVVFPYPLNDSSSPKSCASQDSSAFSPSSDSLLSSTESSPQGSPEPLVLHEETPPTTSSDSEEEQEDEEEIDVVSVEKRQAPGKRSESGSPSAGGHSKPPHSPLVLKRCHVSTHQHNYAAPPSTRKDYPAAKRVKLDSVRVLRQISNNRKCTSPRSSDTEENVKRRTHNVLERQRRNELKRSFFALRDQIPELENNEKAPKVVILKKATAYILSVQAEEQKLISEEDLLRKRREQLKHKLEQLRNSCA
T2 sequence (P06748 whole entry): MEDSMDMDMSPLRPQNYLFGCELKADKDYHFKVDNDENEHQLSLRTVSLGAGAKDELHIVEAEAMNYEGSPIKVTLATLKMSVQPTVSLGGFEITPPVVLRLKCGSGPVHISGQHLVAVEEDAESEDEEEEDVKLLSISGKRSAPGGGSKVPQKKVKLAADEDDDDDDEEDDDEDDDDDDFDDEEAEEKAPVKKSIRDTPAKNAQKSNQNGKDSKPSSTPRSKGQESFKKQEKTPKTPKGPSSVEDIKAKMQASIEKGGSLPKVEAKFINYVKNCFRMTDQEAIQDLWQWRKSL

Compound: CC(C)C[C@@H](C=O)NC(=O)[C@H](CC(C)C)NC(=O)[C@H](CC(C)C)NC(=O)OCc1ccccc1 [MG132, reference compound] (Cbz-Leu-Leu-Leu-aldehyde)
Effect of inhibitor pretreatment on Degrasyn-mediated c-myc protein reduction (c-myc): block Degrasyn-mediated c-myc protein reduction

c-myc protein levels (c-myc; FIG. 21, 1 h): reduced c-myc protein levels | Interaction with NPM (nucleophosmin (NPM)): recovered NPM from cell lysates
Compound: 2-Propenamide, 2-cyano-3-(3-bromo 2-pyridinyl)-N-(2-phenyl-2-ethylene)-1-biotinyl ester-(E) [Bio-Degrasyn]
IC50 (K562 cells): 5.6 µM | IC50 (MM-1 cells; FIG. 21, anti-tumor activity, read-out: IC50 for MM-1 cells): 3.8 µM | Reduction of anti-tumor activity by biotinylation (MM-1 cells; MM-1 and K562 cells, relative to Degrasyn): ~2 fold

Compound: CC(C)C[C@H](NC(=O)[C@H](Cc1ccccc1)NC(=O)c1cnccn1)B(O)O [PS341, reference compound]
Effect of inhibitor pretreatment on Degrasyn-mediated c-myc protein reduction (c-myc): block Degrasyn-mediated c-myc protein reduction

Compound: N#C/C(=C\c1cccc(Br)n1)C(=O)NC(c1ccccc1)C1CC1 (stereo not drawn) [BDT-16]
Tyrosine phosphorylated protein species (~70 kDa, ~55 kDa) [1]: more potently stimulates tyrosine phosphorylation | Anti-tumor activity relative to WP1130 (MM-1 cells; FIG. 28): greater anti-tumor activity than WP1130
